The source of these data is article PMC10344891, “Continuous enzyme activity assay for high-throughput classification of histone deacetylase 8 inhibitors” (Exploration of Targeted Anti-tumor Therapy, 2023).

In test [1] the target is T1, human KDAC8 (Homo sapiens, UniProt Q9BY41).
T1 sequence (Q9BY41 1-377): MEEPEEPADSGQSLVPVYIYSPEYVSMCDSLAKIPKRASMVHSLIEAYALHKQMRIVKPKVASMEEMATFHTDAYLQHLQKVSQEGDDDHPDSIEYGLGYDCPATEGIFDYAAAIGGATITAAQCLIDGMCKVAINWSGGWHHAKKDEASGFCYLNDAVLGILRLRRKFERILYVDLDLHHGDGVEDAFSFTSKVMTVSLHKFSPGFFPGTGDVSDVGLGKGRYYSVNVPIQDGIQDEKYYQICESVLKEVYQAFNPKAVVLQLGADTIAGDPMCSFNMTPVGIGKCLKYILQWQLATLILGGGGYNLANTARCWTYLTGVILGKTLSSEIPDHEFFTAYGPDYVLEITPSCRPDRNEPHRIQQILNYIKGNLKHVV
The experiment in a line: Continuous (one-step) KDAC8 enzyme activity assay, IC50 determination. Format: biochemical. The arrangement: full-length human KDAC8 was produced in E. coli BL21 (DE3); His6-SUMO (N, cleaved yes); made in house; host or cells: E. coli BL21 (DE3), pET14b vector. As to conditions: for Inhibition mode: classification of mode of action on KDAC8; for IC50: 10 nmol/L KDAC8, 60 min pre-incubation at 30°C, 20 µmol/L Boc-Lys(TFA)-AMC, 0.1 mg/mL trypsin, mean ± SD, n = 3; for Time-dependence of IC50 values: pre-incubation times 5 min to 60 min, 100 nmol/L KDAC8.

The target of test [2] is T1, human KDAC8. The experiment in a line: Thermal shift assay (SYPRO orange melting curves). The class given is binding. The arrangement: full-length human KDAC8 was produced in E. coli BL21 (DE3); His6-SUMO (N, cleaved yes); made in house; host or cells: E. coli BL21 (DE3), pET14b vector. As to conditions: for ΔTm at 100 µM: read-out: ΔTm (thermal stabilization of KDAC8). The method, then:
By utilizing a QuantStudio™ 5 real-time quantitative polymerase chain reaction (qPCR) system (Thermo Fisher Scientific), protein melting curves with SYPRO® orange as fluorescence dye were generated. […] A DMSO control without ligand was utilized as a positive control. After mixing the components, the samples were incubated at 30°C for 1 h in the real-time qPCR system to assure binding equilibrium. […] The fluorescence signal was plotted against the temperature. The melting point was calculated as the point of inflection of the first derivative using protein thermal shift software (Thermo Fisher Scientific).

Test [3] has as its system trypsin. Description: Trypsin inhibition counter-assay (Bz-Arg-PNA). Format: biochemical. The settings on record: 0.1 mg/mL trypsin, 400 µmol/L Bz-Arg-PNA, any applied concentration. The protocol:
where EA stands for the enzyme activity at a given ligand concentration x, Emax and E0 are the enzyme activities without ligand and under complete inhibition, respectively. IC50 is the ligand concentration at which half of the enzyme activity is inhibited and h is a measure of the steepness of the dose-response curve. […] All solutions were pre-incubated at 30°C. The two-step IC50 determination has been described previously. In short: KDAC8 was incubated with the respective ligands, and the enzymatic reaction was started by the addition of 20 µmol/L Boc-Lys(TFA)-AMC substrate (Bachem). […]. In this endpoint assay, the fluorescence signal was correlated to […] and normalized with a positive control without ligand. Data analysis was performed as described above. For IC50 determination due to trypsin inhibition, the basic IC50 procedure was identical. In the assay 0.1 mg/mL trypsin and 400 µmol/L Bz-Arg-PNA (Bachem) were used. The change in substrate absorbance was recorded in a microplate reader (Spark®, Tecan) at 405 nm. In this endpoint assay, the absorbance signal was correlated to […] and normalized with a positive control without ligand. Data analysis was performed as described above.

For test [4], the target named is T1, human KDAC8. Description: Progress curves of continuous KDAC8 assay: relative KDAC8 activity after 5,000 s (stabilization curves). As to conditions: ratio of late-stage to early-stage slopes, normalized to free KDAC8.
Experimental: The measurements were carried out in a black 96-well half-area microtiter plate (Greiner) at 30°C in assay buffer (see above). The respective ligand was diluted in Master Mix (see above) and binding kinetics were initiated by the addition of 10 nmol/L KDAC8. […] All solutions were pre-incubated at 30°C. Slopes were calculated for the early-stage (1,000 s to 2,000 s) and the late-stage (5,000 s to 6,000 s) using linear regression. The relative KDAC8 activity in the presence of different inhibitor concentrations was calculated as the ratio of the late-stage and early-stage slopes and normalized to free KDAC8 enzyme.
Test [5] deals with T1, human KDAC8. The experiment in a line: Two-step endpoint KDAC8 activity assay, IC50 determination. Format: biochemical. As to conditions: 20 µmol/L Boc-Lys(TFA)-AMC, stopped with SATFMK, trypsin development, n = 3. The arrangement: full-length human KDAC8 was produced in E. coli BL21 (DE3); His6-SUMO (N, cleaved yes); made in house; host or cells: E. coli BL21 (DE3), pET14b vector.

For test [6], the system named is KDAC11. As to conditions: cited from earlier work.
Test [7] deals with T1, human KDAC8. Description: Michaelis-Menten kinetics with the continuous KDAC8 assay. The class given is biochemical. More on the design: full-length human KDAC8 was produced in E. coli BL21 (DE3); His6-SUMO (N, cleaved yes); made in house; host or cells: E. coli BL21 (DE3), pET14b vector. As to conditions: n = 3. The method, then: The measurements were carried out in a black 96-well microtiter plate (Greiner) at 30°C in assay buffer (see above). A serial two-fold dilution ranging from 50 µmol/L substrate, Boc-Lys(TFA)-AMC (Bachem), to 780 nmol/L, was prepared in an assay buffer containing 0.1 mg/mL trypsin. The enzymatic reaction was initiated by the addition of 10 nmol/L KDAC8. […] The data points were plotted against time and blank corrected. For the determination of Michaelis-Menten parameters, a linear regression analysis of the initial slope (vi) of each curve was performed. Slopes were transformed into rates of AMC product formation using a calibration curve with different AMC concentrations. The obtained enzyme conversion rates were plotted against the respective substrate concentration and fitted to the Michaelis-Menten function using GraphPad Prism software. The turnover number (kcat) was calculated as
where vi is the substrate conversion rate and E is the enzyme concentration. All solutions were pre-incubated at 30°C.

Setting [8] is: 100 µmol/L inhibitor, 12 µmol/L KDAC8, 1 h at 30°C before melting.

Structures can show the parent of a compound that is named as a salt. Where two headings read alike, the source gives them in different places.

For the compound `CC(/C=C/C(=O)NO)=C\[C@H](C)C(=O)c1ccc(N(C)C)cc1` [TSA, trichostatin A], the Inhibition mode entry in test [1] is listed as “Fast reversible binding”. Besides, the ΔTm at 100 µM in test [2] is 11.96 ± 0.06 °C.

As for `O=[N+]([O-])c1ccc(CCS(=O)(=O)c2nc(Cl)ns2)cc1` [TJ-19-29, 3-chloro-5-[2-(4-nitrophenyl)ethanesulfonyl]-1,2,4-thiadiazole], the “Effect on trypsin activity” value in test [3] is reported as “no effect against trypsin”. Besides, in test [4], the “Stabilization of KDAC8 activity (relative KDAC8 activity after 5,000 s vs free enzyme)” value is listed as “do not preserve the relative KDAC8 activity”. For the same compound, in test [1], the IC50 was determined as 0.03 ± 0.009 µM and the Inhibition mode entry is “Covalent inactivation”. Also, the IC50 in test [5] stood at 0.12 ± 0.04 µM. In addition, in test [2] (setting [8]), the “ΔTm (thermal stabilization of KDAC8)” value was found to be 4.4 ± 0.3 °C and the ΔTm at 100 µM was in the range of 4 to 5 °C.

Turning to `O=C(CCCCCCC(=O)Nc1ccccc1)NO` [SAHA, suberoylanilide hydroxamic acid], the “Stabilization of KDAC11” value in test [6] is on record as “capable of stabilizing KDAC11”. Also, in test [1], the Inhibition mode result was “Fast reversible binding” and the “Time-dependence of IC50 values” was “no time-dependent change in IC50-values”. Besides, the “Time to establish binding equilibrium with KDAC8” value in test [1] (deduced from unchanged IC50 at shortest pre-incubation time) is listed as “less than 5 min”. Further, the ΔTm at 100 µM in test [2] is 8.5 ± 0.06 °C.

On to `CCN1C(=O)C=CC1=O` [NEM, N-ethylmaleimide], for which the “Effect on trypsin activity” value in test [3] is given as “no effect against trypsin”. In addition, in test [4], the “Stabilization of KDAC8 activity (relative KDAC8 activity after 5,000 s vs free enzyme)” value is listed as “do not preserve the relative KDAC8 activity”. Further, in test [1], the concentration for half-maximal inhibition (IC50) stood at 0.32 ± 0.09 µM, the Inhibition mode result is “Covalent inactivation” and the “Time-dependence of IC50 values” is “significant changes in IC50-values over time”. This compound gave a concentration for half-maximal inhibition (IC50) in test [5] of 0.78 ± 0.18 µM. In addition, in test [2] (setting [8]), the “ΔTm (thermal stabilization of KDAC8)” value was found to be 4.58 ± 0.26 °C and the thermal shift (ΔTm) at 100 µM lay in the range of 4 to 5 °C.

Turning to `Cc1cc(=O)oc2cc(NC(=O)[C@H](CCCCNC(=O)C(F)(F)F)NC(=O)OC(C)(C)C)ccc12` [Boc-Lys(TFA)-AMC, tert-butyl N-[(1S)-1-[(4-methyl-2-oxo-chromen-7-yl)carbamoyl]-5-[(2,2,2-trifluoroacetyl)amino]pentyl]carbamate], the Michaelis-Menten constant (Km) in test [7] (assay buffer (low salt), 10 nmol/L KDAC8, 30°C) worked out at 8.9 ± 1.6 µM. Moreover, the turnover number (kcat) in test [7] (assay buffer) came out at 0.034 ± 0.002 s⁻¹.
